Tests used:
Format in all cases: cell-based
MCF-7 cells = assay: Inhibition of cell proliferation of MCF-7 cells (CCK-8, 9 days)
Method in brief: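 Read-out was CCK-8 viability after 9-day continuous exposure (37°C, 5% CO2) of MCF-7 cells plated at 800/well in 10% FBS DMEM across several compound concentrations. Values are proliferation IC50s.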

T-47D cells = assay: Inhibition of cell proliferation in T-47D cells (CCK-8, 6 days); conditions: 6 days of treatment
Method in brief: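 Viability read-out was CCK-8 after 6 days of compound treatment (37 °C, 5% CO2) across graded concentrations. Cells were T-47D seeded at 3,000 per well in 1640 medium plus 10% FBS. IC50 was calculated against proliferation.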

ERα [1] = biological target: T1, ERα (Homo sapiens, UniProt P03372); assay: Degradation of ERα in T-47D cells (immunoblotting, 4 h); set-up: host or cells: T-47D
T1 sequence (P03372 1-595): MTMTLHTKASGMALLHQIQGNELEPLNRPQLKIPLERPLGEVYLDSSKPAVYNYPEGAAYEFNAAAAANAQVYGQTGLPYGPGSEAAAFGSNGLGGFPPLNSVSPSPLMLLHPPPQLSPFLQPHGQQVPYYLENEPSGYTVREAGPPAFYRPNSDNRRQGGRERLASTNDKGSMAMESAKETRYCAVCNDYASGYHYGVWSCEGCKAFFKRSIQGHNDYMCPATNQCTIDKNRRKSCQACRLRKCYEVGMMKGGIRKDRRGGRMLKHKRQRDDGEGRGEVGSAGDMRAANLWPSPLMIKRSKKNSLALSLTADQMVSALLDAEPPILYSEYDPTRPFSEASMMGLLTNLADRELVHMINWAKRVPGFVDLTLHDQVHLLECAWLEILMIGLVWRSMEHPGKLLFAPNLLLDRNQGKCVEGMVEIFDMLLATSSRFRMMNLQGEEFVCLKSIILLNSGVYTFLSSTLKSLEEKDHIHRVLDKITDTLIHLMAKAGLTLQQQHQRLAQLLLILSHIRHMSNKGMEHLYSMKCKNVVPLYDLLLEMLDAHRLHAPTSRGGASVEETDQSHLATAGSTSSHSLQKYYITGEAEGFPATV
Method in brief: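 ERα protein levels were assessed by immunoblot of RIPA lysates (with protease inhibitor) after 4 h exposure at 37°C. Compound was added in DMSO to T-47D cells at final concentrations of 0.15-1000 nM.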

ERα [2] = biological target: T1, ERα; assay: Degradation of ERα in MCF-7 cells (immunoblotting, 4 h)
Method in brief: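 Degradation rate reflects ERα band intensity, corrected to an internal reference protein, relative to control. Values come from Western blotting of lysates from MCF-7 cells exposed 4 h at 37°C to compounds at final concentrations of 0.15-1000nM.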

[3] = 9 days of treatment, CCK-8, Table 5
[4] = treated for 9 days, CCK-8 kit (Table 6)

| Compound | IC50 (MCF-7 cells; [3]) | IC50 (MCF-7 cells; [4]) | IC50 (T-47D cells; Table 2) | IC50 (T-47D cells; Table 3) | Degradation rate (%) of ERα in T-47D cells (ERα [1]; 1nM compound) | Degradation rate (%) of ERα in T-47D cells (ERα [1]; 10nM compound) | Degradation rate (%) of ERα in MCF-7 cells (ERα [2]; 1nM compound) | Degradation rate (%) of ERα in MCF-7 cells (ERα [2]; 10nM compound) |
| --- | --- | --- | --- | --- | --- | --- | --- | --- |
| O=C1CCC(N2Cc3cc4c(cc3C2=O)CCC2(CN(C3CCC5(CC3)CN(c3ccc([C@@H]6c7ccc(O)cc7CC[C@@H]6c6ccccc6)cc3)C5)C2)O4)C(=O)N1 (stereo partly drawn) [B10] | 0.04 µM | 0.037 µM | 0.0066 µM | 0.003 µM | 5% | 46% | 3% | 23% |
| O=C1CCC(N2Cc3c(ccc4c3OCC43CCN(C(=O)C4CCC(N5CCN(c6ccc([C@@H]7c8ccc(O)cc8CC[C@@H]7c7ccccc7)cc6)CC5)CC4)CC3)C2=O)C(=O)N1 (stereo partly drawn) [H17] |  | 0.0627 µM |  | 0.00102 µM | 61% | 68% | 47% | 54% |
| O=C1CCC(N2Cc3c(ccc4c3OCC43CCN(C4CCN(C(=O)C5CCN(c6ccc([C@@H]7c8ccc(O)cc8CC[C@@H]7c7ccccc7)cc6)CC5)[C@@H](C(=O)N5CCC(F)(F)CC5)C4)CC3)C2=O)C(=O)N1 (stereo partly drawn) [C1] |  | 0.00805 µM |  | 0.00115 µM | 50% | 72% | 18% | 49% |
| O=C1CCC(N2Cc3cc4c(cc3C2=O)OC2(CC4)CN(C(=O)C3CC4(CCN(c5ccc([C@@H]6c7ccc(O)cc7CC[C@@H]6c6ccccc6)cc5)CC4)C3)C2)C(=O)N1 (stereo partly drawn) [A49] |  | 11.1 µM |  | 0.00963 µM | 17% | 48% | 9% | 37% |
| CCNC(=O)[C@H]1CC(N2CCC3(CC2)COc2c3ccc3c2CN(C2CCC(=O)NC2=O)C3=O)CCN1C1CC2(CCN(c3ccc([C@@H]4c5ccc(O)cc5CC[C@@H]4c4ccccc4)cc3)CC2)C1 (stereo partly drawn) [K26] |  | 0.0482 µM |  | 0.00112 µM | 56% | 87% | 67% | 88% |
| O=C1CCC(N2C(=O)c3cc4c(cc3C2=O)C2(CCN(C3CCC5(CC3)CCN(c3ccc(C6c7ccc(O)cc7CCC6c6ccccc6)cc3)CC5)CC2)CO4)C(=O)N1 (stereo not drawn) [A18] | 0.17 µM |  | 0.068 µM |  |  | 14% |  | 20% |
| CN(CC(=O)N1CC2(CCc3cc4c(cc3O2)C(=O)N(C2CCC(=O)NC2=O)C4)C1)C1CCC2(CC1)CN(c1ccc([C@@H]3c4ccc(O)cc4CC[C@@H]3c3ccccc3)cc1)C2 (stereo partly drawn) [C18] |  | 11.4 µM |  | 0.0111 µM | 24% | 50% | 10% | 29% |
| O=C1CCC(N2Cc3c(ccc4c3OCC43CCN(C4CCN(C5CC6(CCN(c7ccc([C@@H]8c9ccc(O)cc9CC[C@@H]8c8ccccc8)cc7)CC6)C5)[C@H](C(=O)NC5CC5)C4)CC3)C2=O)C(=O)N1 (stereo partly drawn) [H41] |  | 0.00505 µM |  | 0.00188 µM | 59% | 83% | 63% | 80% |
| O=C1CCC(N2Cc3c(ccc4c3OCC43CCN(C4CCN(C(=O)C5CCN(c6ccc([C@@H]7c8ccc(O)cc8CC[C@@H]7c7ccccc7)cc6)CC5)CC4F)CC3)C2=O)C(=O)N1 (stereo partly drawn) [H42] |  | 0.00928 µM |  | 0.00132 µM | 37% | 73% | 49% | 77% |
| O=C1CCC(N2Cc3cc4c(cc3C2=O)OCC2(CCN(CC3CCC5(CC3)CCN(c3ccc([C@@H]6c7ccc(O)cc7CC[C@@H]6c6ccccc6)cc3)CC5)CC2)O4)C(=O)N1 (stereo partly drawn) [A39] |  | 0.03 µM |  | 0.041 µM | 11% | 6% | -16% | -27% |
| O=C1CCC(N2Cc3c(ccc4c3OCC43CCN(C4CCN(C5CN(c6ccc([C@@H]7c8ccc(O)cc8CC[C@@H]7c7ccccc7)cc6)C5)CC4)CC3)C2=O)C(=O)N1 (stereo partly drawn) [A61] |  | 0.837 µM |  | 0.027 µM | 9% | -2% | -4% | -19% |
| CCOC(=O)[C@H]1CC(N2CCC3(CC2)COc2c3ccc3c2CN(C2CCC(=O)NC2=O)C3=O)CCN1C1CC2(CCN(c3ccc([C@@H]4c5ccc(O)cc5CC[C@@H]4c4ccccc4)cc3)CC2)C1 (stereo partly drawn) [A113] |  | 0.0216 µM |  | 0.00461 µM | 26% | 64% | 4% | 52% |
| O=C1CCC(N2Cc3c(ccc4c3OCC43CCN(CC(=O)N4CCC5(CCN(c6ccc([C@@H]7c8ccc(O)cc8CC[C@@H]7c7ccccc7)cc6)C5)C4)CC3)C2=O)C(=O)N1 (stereo partly drawn) [H19] |  | 0.151 µM |  | 0.0018 µM | 39% | 55% | 27% | 21% |
| C[C@H]1CN(C2CC3(CCN(c4ccc([C@@H]5c6ccc(O)cc6CC[C@@H]5c5ccccc5)cc4)CC3)C2)CC[C@H]1N1CCC2(CC1)COc1c2ccc2c1CN(C1CCC(=O)NC1=O)C2=O (stereo partly drawn) [H39] |  | 0.0652 µM |  | 0.00338 µM | 15% | 64% | 20% | 71% |
| O=C1CCC(N2Cc3c(ccc4c3OCC43CCN(C4CCN(C(=O)C5CCN(c6ccc([C@@H]7c8ccc(O)cc8CC[C@@H]7c7ccccc7)cc6)CC5)[C@@H](C(=O)N5CC(F)(F)C5)C4)CC3)C2=O)C(=O)N1 (stereo partly drawn) [C4] |  | 0.067 µM |  | 0.00117 µM | 54% | 85% | 38% | 75% |
| CCC(C(=O)N1CCC2(CC1)COc1c2ccc2c1CN(C1CCC(=O)NC1=O)C2=O)N1CCC2(CCN(c3ccc([C@@H]4c5ccc(O)cc5CC[C@@H]4c4ccccc4)cc3)CC2)C1 (stereo partly drawn) [A95] |  | 0.201 µM |  | 0.00149 µM | 52% | 68% | 42% | 48% |
| O=C1CCC(N2Cc3c(ccc4c3OCC43CCN(C(=O)CC4CCN(C(=O)C5CCN(c6ccc([C@@H]7c8ccc(O)cc8CC[C@@H]7c7ccccc7)cc6)CC5)CC4)CC3)C2=O)C(=O)N1 (stereo partly drawn) [A123] |  | 0.164 µM |  | 0.00134 µM | 66% | 84% | 29% | 61% |

From patent EP4656642A1, “ESTROGEN RECEPTOR PROTEOLYSIS TARGETING CHIMERA COMPOUND AND USE THEREOF” (GAN & LEE PHARM CO., LTD, priority 2023, dated 2024)
